Patent US7482008B1, “Human T cell reactive feline protein (TRFP) isolated from house dust and uses therefor” (Merck Patent GmbH, priority 1989, dated 2009)
“And” between values parts separate entries of the source, which are not always exact repeats. Equal entries are not always repeated.

What was measured:
[1] = system: BDF1 mice preimmunized with TRFP; test: Peptide Y tolerization of mice preimmunized with TRFP, IL-2 (CTLL-2) and IL-4 (CT4S) production; format: in vivo, mouse
Description: BDF1 mice were each immunized with 100 μg TRFP in 200 μl IFA (Incomplete Freund's Adjuvant) in a single site intraperitoneally. After four months, the mice were bled and grouped according to their anti-TRFP IgG antibody levels as follows. The mice were warmed with an infra-red lamp and bled through one of the tail veins by nicking the vein with a razor blade (Gilette Platinum Plus). The blood was allowed to drip into a serum separating tube (Microtainer, Becton-Dickenson) and allowed to clot. The sera was then separated from the clot by centrifugation at 13,000 rpm. The sera was stored at −20° C. until use. The sera was assayed for TRFP-specific IgG by ELISA. […] After rinsing, the bound mouse antibody was detected by incubation with biotinylated goat anti-mouse IgG (Southern Biotechnology Associates) diluted 1/10000 in PBS. […] The resulting O.D. values were read by an ELISA reader (Bio-Tek modal #310) at 450 nm to quantitate the complexes bound to TRFP protein on the plates. […]
There are several phenotypic classes of T helper cells which can be differentiated by their production of lymphokines. […] IL-2 production is easily measured from primary in vitro lymph node cultures through the IL-2 dependent CTLL-2 cell line. Similarly, IL-4 can be measured with cultures of the IL-4 dependent CT4S cells (provided by W. Paul). […] The plates were harvested and counted identically to the IL-2 assays detailed above. […]

[2] = system: BDF1 mice preimmunized with TRFP; test: ELISA of specific IgG binding of mouse sera to TRFP before and after tolerization; format: in vivo
Description: BDF1 mice were each immunized with 100 μg TRFP in 200 μl IFA (Incomplete Freund's Adjuvant) in a single site intraperitoneally. After four months, the mice were bled and grouped according to their anti-TRFP IgG antibody levels as follows. The mice were warmed with an infra-red lamp and bled through one of the tail veins by nicking the vein with a razor blade (Gilette Platinum Plus). The blood was allowed to drip into a serum separating tube (Microtainer, Becton-Dickenson) and allowed to clot. The sera was then separated from the clot by centrifugation at 13,000 rpm. The sera was stored at −20° C. until use. The sera was assayed for TRFP-specific IgG by ELISA. For the IgG assay, immunoaffinity purified TRFP was coated onto Nunc Polysorp 96-well plates by incubation of 50 μl/well of 2 μg/ml TRFP in PBS. Unless mentioned, each incubation step in this protocol was performed for 1 hour at 37° C. After rinsing with PBS, the wells were incubated with 0.5% gelatin in PBS to block excess binding to the plate. The plates were rinsed with PBS containing 0.05% Tween 20. […] After rinsing, the bound mouse antibody was detected by incubation with biotinylated goat anti-mouse IgG (Southern Biotechnology Associates) diluted 1/10000 in PBS. The plates were rinsed and streptavidin conjugated to horse radish peroxidase (Southern Bio. Ass.) diluted 1/10000 was added for 20 minutes and incubated at room temperature. TMB peroxidase substrate (Kirkegaard and Perry) was used according to directions supplied. The resulting O.D. values were read by an ELISA reader (Bio-Tek modal #310) at 450 nm to quantitate the complexes bound to TRFP protein on the plates. The mice were matched for O.D. of the developed ELISA wells using the 1/500 dilution of each sera and separated into two matched groups of three animals. The range of the values for the TRFP specific IgG of 1/500 dilution sera from these animals was between 1.7 and 2.2. […]

[3] = specific IgG binding to TRFP, 1/4500 dilution of sera, individual mice #1-#3

peptide Y: amino acid residues 29-55 from chain 1 of TRFP (SEQ. ID. NO: 18) (KALPVVLENARILKNCVDAKMTEEDKE)
tolerization of peptide Y specific T cells (IL-2) ([1]; 300 μg s.c. days 0 and 5, animals preimmunized with TRFP): can be tolerized
peptide specific production of both IL-2 and IL-4 in secondary in vitro cultures ([1]; pooled lymph node cells, stimulation index): decreased
quantity of antibody specific for TRFP ([2]; 20 days following tolerization): no significant change
ELISA O.D.-sera sampled after “tolerization and challenge [2, 3]: 0.492 and 0.654 and 0.585
ELISA O.D.-sera sampled before “tolerization” and challenge [2, 3]: 0.670 and 0.687 and 0.686
